What is called IC50 is the concentration that inhibits the measured activity by half. For orientation: inhibition means the relative decrease from the control value, in per cent.

Each structure is given as a SMILES string. Structures can show the parent of a compound that is named as a salt. Where two headings read alike, the source gives them in different places.

Test [1] concerns the target T1, HSE DNA-binding activity (Homo sapiens, UniProt Q00613).
T1 construct: functionally linked to an hsp70b promoter and therefore controlled by endogenous HSF1; endogenous in cells; host or cells: HeLa cells / HeLa-derived cell line Z74
T1 sequence (Q00613 1-529): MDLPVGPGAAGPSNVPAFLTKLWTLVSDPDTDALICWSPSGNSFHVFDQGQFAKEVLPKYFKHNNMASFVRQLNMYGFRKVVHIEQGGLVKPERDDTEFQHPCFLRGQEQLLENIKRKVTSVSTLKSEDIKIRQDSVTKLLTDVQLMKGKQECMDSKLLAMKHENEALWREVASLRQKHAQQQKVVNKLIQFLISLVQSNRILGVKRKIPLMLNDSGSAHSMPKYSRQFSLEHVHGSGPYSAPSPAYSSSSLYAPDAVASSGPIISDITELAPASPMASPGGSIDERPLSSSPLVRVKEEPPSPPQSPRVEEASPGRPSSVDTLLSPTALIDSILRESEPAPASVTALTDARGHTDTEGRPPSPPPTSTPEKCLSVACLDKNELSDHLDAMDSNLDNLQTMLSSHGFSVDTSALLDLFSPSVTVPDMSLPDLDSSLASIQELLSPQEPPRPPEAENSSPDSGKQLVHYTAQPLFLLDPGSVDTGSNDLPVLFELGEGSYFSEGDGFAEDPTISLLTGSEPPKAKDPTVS
Briefly: EMSA using extracts of heat-treated HeLa cells, in the presence of IHSF. Format: biochemical. The settings on record: extracts of HeLa cells heat-treated at 43° C. for 30 min; concentrations as high as about 0.5 mM. As to the method:
Electrophoretic mobility shift assays (EMSA) using a radiolabeled HSE DNA probe were carried out to assess HSF1 DNA-binding activity in extracts of heat-treated (43° C./30 min) HeLa cells that had been exposed to different concentrations of compounds 058 or 115 (FIG. 3A, top panels). […] HSF1 degradation correlated well with the observed decrease in DNA-binding activity. Therefore, HSF1 degradation provides a sufficient explanation for the reduced HSE DNA-binding activity in cells treated with IHSF 058. […] EMSA were also carried out using extracts of HeLa cells that had been heat-treated at 43° C. for 30 min.

In test [2] the target is T2, HSF1 (Homo sapiens, UniProt Q00613).
T2 construct: functionally linked to an hsp70b promoter and therefore controlled by endogenous HSF1; endogenous in cells; host or cells: HeLa cells / HeLa-derived cell line Z74
T2 sequence (Q00613 1-529): T1 sequence (Q00613 1-529)
Nature of the test: Z74 cell-based reporter assay: heat-induced RLuc expression controlled by endogenous HSF1. The settings on record: for IC50: inhibition of HSF1 activity [RLuc]; for inhibition at 12.5 µM: read-out: Inhibition of HSF1 activity at 12.5 μM IHSF [RLuc] (%); for inhibition at 25 µM: read-out: Inhibition of HSF1 activity at 25 μM IHSF [RLuc] (%). The source says: For screening this sublibrary, a cell-based assay was developed. We opted for a cell-based assay, because a cell-free assay would have had to be a DNA-binding assay. Such an assay would have limited discovery to molecules capable of interfering with the DNA-binding function of HSF1. This was thought to be too narrow a focus, considering that three of the four cavities identified in the HSF1 DNA-binding domain are not near the DNA interaction region. A straightforward cell-based assay, in which a HSF1-responsive gene would be assayed, was considered likely to be over-inclusive. Compounds would be scored as hits that inhibit any factor that is involved in HSF1 activation or prevents HSF1 deactivation. These factors include protein kinases, activators of protein phosphatases, factors affecting HSF1 mRNA stability, HSP90, HDAC6, etc. For developing a more discriminating cell-based assay, advantage was taken of the modular nature of HSF1. […] The cell-based assay developed (see below for the particular format employed) compared transactivation by wild type HSF1 and chimeric HSF1 in cells exposed to an HSF1-activating heat treatment in the presence of a sublibrary compound. A compound was scored as a hit, if it inhibited the activity of wild type HSF1 but not of chimeric HSF1.
The cell-based assay made use of HeLa-derived cell line Z74 that stably contains a gene for chimeric transcription factor LexA-(human) HSF1 under the control of a CMV early promoter, a firefly luciferase (flue) gene driven by a promoter responsive to the latter chimeric transcription factor and a Renilla luciferase (rluc) gene functionally linked to an hsp70b promoter and therefore controlled by endogenous HSF1 (FIG. 1A). As is shown in FIGS. 1B & C, the reporter genes responded similarly to heat dose, i.e., their activation depended on both duration of heat exposure and temperature of the exposure. […] Depletion of HSF1 (and LexA-HSF1) by siRNA supported the notion that this stress regulation is mediated by HSF1 (and LexA-HSF1). Therefore, the Z74 line was well suited for use in a screening assay aimed at discovering molecules that inhibit heat-induced HSF1 activity through interaction with the transcription factor's DNA-binding domain.
The compounds of the afore-mentioned biased sublibrary were screened in cell line Z74 at 12.5 and 25 μM concentrations. Typically, Z74 cultures in 96-well plates were exposed to compound or vehicle for 2 h, heat-treated at 43.0° C. for 30 min, and incubated further for 6 h at 37° C. to allow for accumulation of the luciferases. RLuc and FLuc activities were determined, typically using the Dual-Glo® Luciferase Assay System (Promega Corp., Madison, Wis.), and reading luciferase light counts in a Wallac Microbeta Trilux-1450 Luminometer (PerkinElmer, Waltham, Mass.). IHSF 001 was one of two library compounds that inhibited RLuc expression but not FLuc expression in heat-treated Z74 cells (Table 1; FIG. 2A). Therefore, IHSF 001 is an inhibitor of HSF1 function that specifically acts through the HSF1 DNA-binding domain. […] A corroborating experiment utilized a cell line containing an hsp70b promoter-driven fluc gene. […] IHSF 001 is (E)-ethyl 4-oxo-4-(thiazol-2-ylamino)but-2-enoate. The compound can be obtained from commercial sources (e.g., AKE-PB-90340538, Akos).

The mark [3] stands for this setting: Z74 cells, 12.5 μM IHSF, negative values marked *: compound enhanced rLuc activity.
Where [4] appears, read: Z74 cells, 25 μM IHSF, 2 h exposure, 43° C. 30 min, 6 h at 37° C.

In the case of `CCOC(=O)/C=C/C(=O)Nc1nc(C)c(-c2ccccc2)s1` [IHSF 051, (E)-3-(4-Methyl-5-phenyl-thiazol-2-ylcarbamoyl)-acrylic acid ethyl ester], the “HSE DNA-binding activity (EMSA) in the presence of IHSF” value in test [1] is “no reduction”. In test [2] (Z74 cells), this compound yielded an IC50 of 9.6 µM. Also, the inhibition at 12.5 µM in test [2] (setting [3]) is 72%. The inhibition at 25 µM in test [2] (setting [4]) is 92%.
For the compound `CCOC(=O)/C=C/C(=O)Nc1cc(C)nc(C)c1` [IHSF 082, (E)-3-(2,6-Dimethyl-pyridin-4-ylcarbamoyl)-acrylic acid ethyl ester], the inhibition at 12.5 µM in test [2] (setting [3]) was 58%. The inhibition at 25 µM in test [2] (setting [4]) stood at 91%.
Take `CCOC(=O)/C=C/C(=O)Nc1ccnc(C)c1` [IHSF 048, (E)-3-(2-Methyl-pyridin-4-ylcarbamoyl)-acrylic acid ethyl ester]: the inhibition at 12.5 µM in test [2] (setting [3]) worked out at 37%. Besides, in test [2] (setting [4]), the inhibition at 25 µM was found to be 67%.
With `Cc1csc(NC(=O)/C=C/C(=O)N(C)C)n1` [IHSF 061, (E)-But-2-enedioic acid dimethyl-amide (4-methyl-thiazol-2-yl)-amide], in test [2] (setting [3]), the inhibition at 12.5 µM came to 12%. Besides, the inhibition at 25 µM in test [2] (setting [4]) turned out to be 18%.
Taken in the same sequence, the figures for `CCOC(=O)/C=C/C(=O)Nc1ccn(C)n1` [IHSF 016, (E)-3-(1-Methyl-1H-pyrazol-3-ylcarbamoyl)-acrylic acid ethyl ester] were 0% and 25%.
In test [2] (Z74 cells), `CCOC(=O)/C=C/C(=O)Nc1ncc(-c2ccccc2)s1` [IHSF 014, (E)-3-(5-Phenyl-thiazol-2-ylcarbamoyl)-acrylic acid ethyl ester] yielded an IC50 of 7.1 µM. In addition, the inhibition at 12.5 µM in test [2] (setting [3]) is 60%. The inhibition at 25 µM in test [2] (setting [4]) was 89%.
For `CC(C)NC(=O)/C=C/C(=O)Nc1nccs1` [IHSF 031, (E)-But-2-enedioic acid isopropylamide thiazol-2-ylamide], in test [2] (setting [3]), the inhibition at 12.5 µM stood at 15%. In addition, in test [2] (setting [4]), the inhibition at 25 µM is 24%.
`CCOC(=O)/C=C/C(=O)N(C)c1nccs1` [IHSF 070, (E)-3-(Methyl-thiazol-2-yl-carbamoyl)-acrylic acid ethyl ester]: the IC50 in test [2] (Z74 cells) is 5.7 µM. In test [2] (setting [3]), the inhibition at 12.5 µM was found to be 72%. Also, the inhibition at 25 µM in test [2] (setting [4]) came to 90%.
`CCOC(=O)/C=C/C(=O)Nc1nc(CC)c(-c2ccccc2)s1` [IHSF 107, (E)-3-(4-Ethyl-5-phenyl-thiazol-2-ylcarbamoyl)-acrylic acid ethyl ester]: in test [2] (Z74 cells), the IC50 was found to be 10.6 µM. Moreover, the inhibition at 12.5 µM in test [2] (setting [3]) came to 62%. Moreover, the inhibition at 25 µM in test [2] (setting [4]) amounted to 92%.
Turning to `CCOC(=O)/C=C/C(=O)Nc1nncs1` [IHSF 018, (E)-3-([1,3,4]Thiadiazol-2-ylcarbamoyl)-acrylic acid ethyl ester], the IC50 in test [2] (Z74 cells) is 23.6 µM. Further, the inhibition at 12.5 µM in test [2] (setting [3]) came out at 20%. In addition, in test [2] (setting [4]), the inhibition at 25 µM was found to be 53%.
On to `CCOC(=O)/C=C/C(=O)Nc1ccncc1C` [IHSF 083, (E)-3-(3-Methyl-pyridin-4-ylcarbamoyl)-acrylic acid ethyl ester], for which the inhibition at 12.5 µM in test [2] (setting [3]) came to 24%. The inhibition at 25 µM in test [2] (setting [4]) came out at 34%.
For the compound `CCOC(=O)/C=C/C(=O)Nc1ccnc(N2CCOCC2)c1` [IHSF 077, (E)-3-(2-Morpholin-4-yl-pyridin-4-ylcarbamoyl)-acrylic acid ethyl ester formic acid salt], in test [2], the inhibition at 12.5 µM stood at 42% and the inhibition at 25 µM amounted to 67%.
Regarding `CCOC(=O)/C=C/C(=O)Nc1cc(-c2ccccc2)cs1` [IHSF 043, (E)-3-(4-Phenyl-thiophen-2-ylcarbamoyl)-acrylic acid ethyl ester], in test [2] (setting [3]), the inhibition at 12.5 µM was 32%. Besides, in test [2] (setting [4]), the inhibition at 25 µM is 5%.
Turning to `CCOC(=O)/C=C/C(=O)Nc1nc(C(=O)OC)c(-c2ccccc2)s1` [IHSF 105, 2-((E)-3 -Ethoxycarbonyl-acryloylamino)-5-phenyl-thiazole-4-carboxylic acid methyl ester], the IC50 in test [2] (Z74 cells) came out at 10.8 µM. Also, the inhibition at 12.5 µM in test [2] (setting [3]) is 69%. The inhibition at 25 µM in test [2] (setting [4]) came to 96%.
Take `O=C(/C=C/c1ncccn1)Nc1nccs1` [IHSF 088, (E)-3-(Pyrimidin-2-yl)-N-(thiazol-2-yl)acrylamide]: the inhibition at 12.5 µM in test [2] (setting [3]) came to 25%. For the same compound, the inhibition at 25 µM in test [2] (setting [4]) was determined as 31%.
For `CCCC(=O)/C=C/C(=O)Nc1nccs1` [IHSF 095, (E)-4-Oxo-N-(thiazol-2-yl)hept-2-enamide], the inhibition at 12.5 µM in test [2] (setting [3]) was determined as 6%. For the same compound, the inhibition at 25 µM in test [2] (setting [4]) stood at 44%.
Turning to `O=C(/C=C/C1=NCCO1)Nc1nccs1` [IHSF 092, (E)-3-(4,5-Dihydro-oxazol-2-yl)-N-thiazol-2-yl-acrylamide], in test [2] (Z74 cells), the IC50 was found to be 4.7 µM. Also, in test [2] (setting [3]), the inhibition at 12.5 µM is 90%. The inhibition at 25 µM in test [2] (setting [4]) turned out to be 99%.
On to `CCN(CC)C(=O)/C=C/C(=O)Nc1nc(C)cs1` [IHSF 060, (E)-But-2-enedioic acid diethyl-amide (4-methyl-thiazol-2-yl)-amide], for which the inhibition at 12.5 µM in test [2] (setting [3]) amounted to 16%. For the same compound, the inhibition at 25 µM in test [2] (setting [4]) is 19%.
Take `CCOC(=O)/C=C/C(=O)Nc1ccnc(N2CCN(C)CC2)c1` [IHSF 078, (E)-3-[2-(4-Methyl-piperazin-1-yl)-pyridin-4-ylcarbamoyl]-acrylic acid ethyl ester formic acid salt]: in test [2], the inhibition at 12.5 µM was determined as 32% and the inhibition at 25 µM worked out at 54%.
`CCOC(=O)/C=C/C(=O)Nc1ccon1` [IHSF 017, (E)-3-(Isoxazol-3-ylcarbamoyl)-acrylic acid ethyl ester]: the inhibition at 12.5 µM in test [2] (setting [3]) was determined as 32%. The inhibition at 25 µM in test [2] (setting [4]) stood at 37%.
In turn, `CCOC(=O)/C=C/C(=O)Nc1ccncc1` [IHSF 020, (E)-3-(Pyridin-4-ylcarbamoyl)-acrylic acid ethyl ester] showed an IC50 in test [2] (Z74 cells) of 23.5 µM. In addition, the inhibition at 12.5 µM in test [2] (setting [3]) is 30%. Besides, in test [2] (setting [4]), the inhibition at 25 µM stood at 53%.
As to `CC(C)OC(=O)/C=C/C(=O)Nc1nccs1` [IHSF 028, (E)-3-(Thiazol-2-ylcarbamoyl)-acrylic acid isopropyl ester], in test [2] (setting [3]), the inhibition at 12.5 µM came to 13%. Besides, the inhibition at 25 µM in test [2] (setting [4]) came to 41%.
Take `CCOC(=O)/C=C/C(=O)Nc1nc(C2CC2)cs1` [IHSF 053, (E)-3-(4-Cyclopropyl-thiazol-2-ylcarbamoyl)-acrylic acid ethyl ester]: in test [2] (setting [3]), the inhibition at 12.5 µM was 15%. Besides, the inhibition at 25 µM in test [2] (setting [4]) is 29%.

(Values after patent publication US11597708B2, “Inhibitors of heat shock factors and uses thereof” (HSF Pharmaceuticals SA, priority 2016, dated 2023).)
